According to paper PMC3092583, “Enzyme Mechanism and Slow-Onset Inhibition of Plasmodium falciparum Enoyl-Acyl Carrier Protein Reductase by an Inorganic Complex” (2011):
Like-named read-outs stand apart in the source and are kept apart here.

Columns and labels:
[1] = molecular target: T1, P. falciparum ENR (PfENR), enoyl-acyl carrier protein reductase (Plasmodium falciparum, UniProt Q9BH77); assay: biochemical; assay type: binding
T1 construct: gene FabI
T1 sequence (Q9BH77 22-432): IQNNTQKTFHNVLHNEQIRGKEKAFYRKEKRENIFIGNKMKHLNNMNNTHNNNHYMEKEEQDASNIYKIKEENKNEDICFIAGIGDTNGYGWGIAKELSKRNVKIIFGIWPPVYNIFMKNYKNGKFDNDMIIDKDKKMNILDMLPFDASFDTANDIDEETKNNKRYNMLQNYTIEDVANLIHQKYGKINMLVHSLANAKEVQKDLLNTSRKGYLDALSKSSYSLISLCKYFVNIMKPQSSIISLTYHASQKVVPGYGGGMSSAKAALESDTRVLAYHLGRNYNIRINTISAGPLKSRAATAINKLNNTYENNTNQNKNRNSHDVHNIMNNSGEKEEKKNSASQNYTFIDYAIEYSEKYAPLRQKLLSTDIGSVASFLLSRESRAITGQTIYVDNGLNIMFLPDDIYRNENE

[2] = molecular target: T1, P. falciparum ENR (PfENR), enoyl-acyl carrier protein reductase; assay: biochemical; assay type: binding; remark: listed apart in the source
[3] = substrate: C/C=C/C(=O)SCCNC(=O)CCNC(=O)[C@H](O)C(C)(C)COP(=O)(O)OP(=O)(O)OC[C@H]1O[C@@H](n2cnc3c(N)ncnc32)[C@H](O)[C@@H]1OP(=O)(O)O; assay: steady-state initial velocity kinetics (KM) with purified enzyme; no fluorescence change with free enzyme; assay type: biochemical, Plasmodium falciparum; details: NADH proposed to bind to a modified form of the enzyme (F) after NAD+ release

## NC(=O)C1=CN([C@@H]2O[C@H](COP(=O)(O)OP(=O)(O)OC[C@H]3O[C@@H](n4cnc5c(N)ncnc54)[C@H](O)[C@@H]3O)[C@@H](O)[C@H]2O)C=CC1 [NADH]
[1]
  Kd: 398 µM

## CCCC(=O)SCCNC(=O)CCNC(=O)[C@H](O)C(C)(C)COP(=O)(O)OP(=O)(O)OC[C@H]1O[C@@H](n2cnc3c(N)ncnc32)[C@H](O)[C@@H]1OP(=O)(O)O [butyryl-CoA]
[2]
  Kd: 1150 µM

B1: P. falciparum ENR (PfENR), enoyl-acyl carrier protein reductase (Plasmodium falciparum) (protein)
chain: T1 sequence (Q9BH77 22-432)
[3]
  Km: 63 µM
